Source: patent US20190249218A1, “Method, Medium and Kit for Detecting Multiple Aminoglycoside Resistance Including 16S rRNA Methylase Mediated Resistance in Gram-Negative Bacteria” (priority 2016, published 2019)
Converted amounts (≈) assume the structure as drawn. Where two headings read alike, the source gives them in different places.

Assays:
Test in all cases: MIC by broth microdilution
K. pneumoniae = format: cell-based, Klebsiella pneumoniae; conditions: for MIC: Klebsiella pneumoniae, read-out: MIC
Experimental: (§1) MICs of amikacin and gentamicin were determined using the broth microdilution method in cation-adjusted Mueller-Hinton broth, as recommended by the Clinical Laboratory Standard Institute (CLSI) guidelines (8). Amikacin and gentamicin sulfate (Fluorochem, Dertbyshire, UK) were tested over a range of dilutions from 0.25 to 256 μg/ml. A final inoculum of 5.10^5 CFU/ml of each strain was distributed in the 96 wells tray (Sarstedt, Ntimbrecht, Germany). All experiments were repeated in triplicate and E. coli ATCC 25922 was used as quality control. According to the CLSI breakpoints (9), Enterobacteriaceae isolates with gentamicin MICs≤4 and amikacin MICs≤16 mg/L were categorized as susceptible, while those with gentamicin MICs≥16 and amikacin MICs≥64 mg/L were categorized as resistant.
(§2) MICs of amikacin and gentamicin were determined as described above in Example 1.

P. stuartii = format: cell-based, Providencia stuartii; conditions: for MIC: Providencia stuartii, read-out: MIC
Experimental: as §1, §2

P. aeruginosa = format: cell-based, Pseudomonas aeruginosa; conditions: Pseudomonas aeruginosa, read-out: MIC
Experimental: as §1, §2

A. baumannii = format: cell-based, Acinetobacter baumannii; conditions: Acinetobacter baumannii
Experimental: as §1, §2

E. coli = format: cell-based, Escherichia coli; conditions: Escherichia coli, read-out: MIC
Experimental: as §1, §2

[1] = isolate 13000, K. pneumoniae, APH(3′)-I + AAC(3)-V
[2] = isolate 22233, K. pneumoniae, AAC(3)-V
[3] = isolate N34, K. pneumoniae, rmtC
[4] = isolate R108, K. pneumoniae, armA
[5] = isolate R347, K. pneumoniae, AG susceptible
[6] = isolate R500, K. pneumoniae, armA
[7] = isolate R502, K. pneumoniae, rmtF
[8] = isolate R2160, K. pneumoniae, rmtG
[9] = isolate R2257, K. pneumoniae, armA
[10] = isolate S155, K. pneumoniae, AG susceptible
[11] = isolate BM2667, P. stuartii, APH(3′)-VI + AAC(2′)
[12] = isolate R265, P. stuartii, rmtC

## NCC[C@H](O)C(=O)N[C@@H]1C[C@H](N)[C@@H](O[C@H]2O[C@H](CN)[C@@H](O)[C@H](O)[C@H]2O)[C@H](O)[C@H]1O[C@H]1O[C@H](CO)[C@@H](O)[C@H](N)[C@H]1O [Amikacin]
K. pneumoniae; isolate 1800, K. pneumoniae, AAC(6′)-I + AAC(3)-I
  MIC: 32 µg/mL
K. pneumoniae; [1]
  MIC: 0.5 µg/mL
  Amikacin Phenotype: S (amikacin MICs≤16 mg/L were categorized as susceptible)
K. pneumoniae; [2]
  MIC: 16 µg/mL (≈ 27.3 µM)
  Amikacin Phenotype: S (amikacin MICs≤16 mg/L were categorized as susceptible)
K. pneumoniae; [3]
  MIC: > 256 µg/mL
  Amikacin Phenotype: R (amikacin MICs≥64 mg/L were categorized as resistant)
K. pneumoniae; [4]
  MIC: > 256 µg/mL
  Amikacin Phenotype: R (amikacin MICs≥64 mg/L were categorized as resistant)
K. pneumoniae; [5]
  MIC: 4 µg/mL (≈ 6.83 µM)
  Amikacin Phenotype: S (amikacin MICs≤16 mg/L were categorized as susceptible)
K. pneumoniae; [6]
  MIC: > 256 µg/mL
  Amikacin Phenotype: R (amikacin MICs≥64 mg/L were categorized as resistant)
K. pneumoniae; [7]
  MIC: > 256 µg/mL
  Amikacin Phenotype: R (amikacin MICs≥64 mg/L were categorized as resistant)
K. pneumoniae; [8]
  MIC: > 256 µg/mL
  Amikacin Phenotype: R (amikacin MICs≥64 mg/L were categorized as resistant)
K. pneumoniae; [9]
  MIC: > 256 µg/mL
  Amikacin Phenotype: R (amikacin MICs≥64 mg/L were categorized as resistant)
K. pneumoniae; [10]
  MIC: 2 µg/mL (≈ 3.42 µM)
  Amikacin Phenotype: S (amikacin MICs≤16 mg/L were categorized as susceptible)
K. pneumoniae; strain 1800, K. pneumoniae, AAC(6′)-I + AAC(3)-I
  MIC: 32 µg/mL
K. pneumoniae; strain 13000, K. pneumoniae, APH(3′)-I + AAC(3)-V
  MIC: 0.5 µg/mL
K. pneumoniae; strain 22233, K. pneumoniae, AAC(3)-V
  MIC: 16 µg/mL (≈ 27.3 µM)
K. pneumoniae; strain N34, K. pneumoniae, rmtC
  MIC: > 512 µg/mL
K. pneumoniae; strain R108, K. pneumoniae, armA
  MIC: > 512 µg/mL
K. pneumoniae; strain R347, K. pneumoniae, susceptible
  MIC: 4 µg/mL (≈ 6.83 µM)
K. pneumoniae; strain R500, K. pneumoniae, armA
  MIC: > 512 µg/mL
K. pneumoniae; strain R502, K. pneumoniae, rmtF
  MIC: > 512 µg/mL
K. pneumoniae; strain R2160, K. pneumoniae, rmtG
  MIC: > 512 µg/mL
K. pneumoniae; strain R2257, K. pneumoniae, armA
  MIC: > 512 µg/mL
K. pneumoniae; strain S155, K. pneumoniae, susceptible
  MIC: 2 µg/mL (≈ 3.42 µM)
P. stuartii; [11]
  MIC: 64 µg/mL
  Amikacin Phenotype: R (amikacin MICs≥64 mg/L were categorized as resistant)
P. stuartii; isolate R38, P. stuartii, rmtC
  MIC: > 256 µg/mL
  Amikacin Phenotype: R (amikacin MICs≥64 mg/L were categorized as resistant)
P. stuartii; [12]
  MIC: > 256 µg/mL
  Amikacin Phenotype: R (amikacin MICs≥64 mg/L were categorized as resistant)
P. stuartii; strain BM2667, P. stuartii, APH(3′)-VI + AAC(2′)
  MIC: 64 µg/mL
P. stuartii; strain R38, P. stuartii, rmtC
  MIC: > 512 µg/mL
P. stuartii; strain R265, P. stuartii, rmtC
  MIC: > 512 µg/mL
P. aeruginosa; strain 3655, P. aeruginosa, APH(3′)-I + ANT(2″)
  MIC: 1 µg/mL
P. aeruginosa; strain 3658, P. aeruginosa, APH(3′)-I + ANT(4′)-II
  MIC: > 128 µg/mL
P. aeruginosa; strain 28233, P. aeruginosa, APH(3′)-I + AAC(3)-I
  MIC: 4 µg/mL
P. aeruginosa; strain R191, P. aeruginosa, susceptible
  MIC: 8 µg/mL (≈ 13.7 µM)
A. baumannii
  MIC: 128 µg/mL (≈ 219 µM)
A. baumannii; strain 4996, A. baumannii, AAC(6′)-I, read-out: MIC
  MIC: 64 µg/mL (≈ 109 µM)
A. baumannii; strain BM2580, A. baumannii, APH(3′)-VI, read-out: MIC
  MIC: 64 µg/mL (≈ 109 µM)
A. baumannii; strain R264, A. baumannii, armA, read-out: MIC
  MIC: > 512 µg/mL
A. baumannii; strain R1395, A. baumannii, susceptible, read-out: MIC
  MIC: 2 µg/mL (≈ 3.42 µM)
E. coli; ATCC25922, isolate FR136, E. coli ATCC 25922, AG susceptible
  MIC: 2 µg/mL (≈ 3.42 µM)
E. coli; ATCC25922, strain R2298, E. coli ATCC 25922, susceptible
  MIC: 2 µg/mL (≈ 3.42 µM)
E. coli; ATCC35218, isolate R2278, E. coli ATCC 35218, AG susceptible
  MIC: 4 µg/mL (≈ 6.83 µM)
E. coli; ATCC35218, strain R2278, E. coli ATCC 35218, susceptible
  MIC: 4 µg/mL (≈ 6.83 µM)
E. coli; isolate 62Carb, E. coli, rmtB
  MIC: > 256 µg/mL
E. coli; isolate 92/31, E. coli, AAC(3)-IV
  MIC: 4 µg/mL (≈ 6.83 µM)
E. coli; isolate 97, E. coli, AAC(3)-IV
  MIC: 2 µg/mL (≈ 3.42 µM)
E. coli; isolate 390, E. coli, AAC(3)-IV
  MIC: 16 µg/mL (≈ 27.3 µM)
E. coli; isolate 1054 (first entry), E. coli, AAC(6′)-I
  MIC: 8 µg/mL (≈ 13.7 µM)
E. coli; isolate 1054 (second entry), E. coli, AAC(6′)-I
  MIC: 16 µg/mL (≈ 27.3 µM)
E. coli; isolate 1488, E. coli, AAC(6′)-II
  MIC: 4 µg/mL (≈ 6.83 µM)
E. coli; isolate 4000, E. coli, APH(3′)-I + AAC(3)-V
  MIC: 4 µg/mL
E. coli; isolate 22089, E. coli, AAC(3)-I + AAC(3)-V
  MIC: 16 µg/mL
E. coli; isolate 122971, E. coli, ANT(2″)
  MIC: 4 µg/mL (≈ 6.83 µM)
E. coli; isolate E28, E. coli, rmtB
  MIC: > 256 µg/mL
E. coli; isolate R107, E. coli, rmtB
  MIC: > 256 µg/mL
E. coli; isolate R1012, E. coli, armA
  MIC: > 256 µg/mL
E. coli; isolate R1436, E. coli, AG susceptible
  MIC: 2 µg/mL (≈ 3.42 µM)
E. coli; isolate R1438, E. coli, AG susceptible
  MIC: 2 µg/mL (≈ 3.42 µM)
